The subject of test [1] is human umbilical vein endothelial cells (HUVECs). Description: Three dimensional (3D) endothelial sprouting assay. In kind it is cell-based. The settings on record: HUVEC, CM-supplemented 3D-fibrin cultures, read-out: IC90 for inhibiting endothelial cell sprouting. As for the experimental part:
Three Dimensional (3D) Endothelial Sprouting Assay. The assay was performed using a minimum of 3 replicate wells of a 48 well tissue culture plate per drug dose per experiment, repeated 3 independent times in which human umbilical vein endothelial cells (HUVECs) obtained from Lonza Walkersville Inc (Walkersville, MD) attached to gelatin-coated dextran microcarrier bead are embedded in a fibrin matrix as described previously (Brennen et al. Oncotarget 7, 71298-71308 (2016)).
Besides its therapeutic effects on cancer cells, TasQ's anti-cancer efficacy also involves its dose-dependent anti-angiogenic activity (see, e.g., Isaacs 2006, Olsson 2010, Dalrymple 2012), Isaacs 2013, Isaacs 2014, Brennen 2016). To clarify the MoA for this anti-angiogenic activity, a 3-dimensional (3D) endothelial cell sprouting assay was used. In this assay, human umbilical vein endothelial cells (HUVECs) in basal media supplemented with VEGF, EGF, FGF, IGF1 and 2% FBS in standard 2D cultures are attached to collagen-coated beads embedded in a 3D-fibrin gel in the same growth factor-supplemented media. […] This lack of sprouting is associated with an upregulation in Mef-2c mRNA (Table 2) and protein (FIG. 38), and its target genes (Table 2) like Alpha 2 Macroglobulin (A2M). […]

Test [2] concerns the target T1, fl-R681A/R798A double mutant HDAC4 (Homo sapiens, UniProt P56524, R681A/R798A).
T1 construct: Full-length (fl) [A.A. 1-1082] recombinant human histone deacetylase 4 (rhHDAC4) protein; FLAG (N); GST (given as 'with or without'); made in house; host or cells: HEK293-T
Description: SPR binding of fl-R681A/R798A double mutant HDAC4 to immobilized TasQ. The conditions noted are these: TasQ in solution. The method, then:
(§1) Surface Plasmon Resonance (SPR) Binding Analysis. SPR analysis was performed on the Biacore 3000™ system using CM5 sensor chips, certified buffers (HBS-P—10 mM HEPES, 0.15 M NaCl, pH 7.4, containing 0.005% v/v Surfactant P; HBS-EP-HBS-P with 3 mM EDTA) and reagents for immobilization and surface regeneration from Biacore, GE Healthcare, Uppsala Sweden. Evaluation of sensorgrams was performed using the BIA-evaluation Software version 4.1 and GraphPad Prism 4. Buffer of protein reagents were changed to HBS-P on Zeba spin desalting columns (Thermo Scientific) prior to being used in SPR analysis (Isaacs 2013).
A. Binding of wild-type and mutant forms of HDAC4 to immobilized TasQ. TasQ (ABR-215050; mol wt 406.4) was dissolved as a 40 mM solution in water with 1.5 equivalents of NaOH. TasQ with an amino-linker [i.e. —(CH2)2O(CH2)2—NH2](ABR-225180) in amide nitrogen position was used for amine coupling on to a Biacore CM5 sensor chip. A 1 mg/mL solution of ABR-225180 in HBS-P buffer was prepared and immobilized on a CM5 chip by injection at a flow rate of 5 or 10 μL/min until a stable response level was reached. Interaction of various HDAC4 forms with immobilized TasQ was studied by injection over this surface in HBS-P buffer containing 10 or 20 μM ZnCl2. Bound HDAC4 was removed by a pulse of 3 mM EDTA in HBS-P or 0.5 to 6.25 mM NaOH in water. […]

For another test, the target named is T2, HDAC4-NCoR1 complex (Homo sapiens, UniProt P56524).
T2 construct: Full-length (fl) [A.A. 1-1082] recombinant human histone deacetylase 4 (rhHDAC4) protein; FLAG (N); GST (given as 'with or without'); host or cells: HEK293-T (HDAC4)
T2 sequence (P56524 whole entry, one chain of several): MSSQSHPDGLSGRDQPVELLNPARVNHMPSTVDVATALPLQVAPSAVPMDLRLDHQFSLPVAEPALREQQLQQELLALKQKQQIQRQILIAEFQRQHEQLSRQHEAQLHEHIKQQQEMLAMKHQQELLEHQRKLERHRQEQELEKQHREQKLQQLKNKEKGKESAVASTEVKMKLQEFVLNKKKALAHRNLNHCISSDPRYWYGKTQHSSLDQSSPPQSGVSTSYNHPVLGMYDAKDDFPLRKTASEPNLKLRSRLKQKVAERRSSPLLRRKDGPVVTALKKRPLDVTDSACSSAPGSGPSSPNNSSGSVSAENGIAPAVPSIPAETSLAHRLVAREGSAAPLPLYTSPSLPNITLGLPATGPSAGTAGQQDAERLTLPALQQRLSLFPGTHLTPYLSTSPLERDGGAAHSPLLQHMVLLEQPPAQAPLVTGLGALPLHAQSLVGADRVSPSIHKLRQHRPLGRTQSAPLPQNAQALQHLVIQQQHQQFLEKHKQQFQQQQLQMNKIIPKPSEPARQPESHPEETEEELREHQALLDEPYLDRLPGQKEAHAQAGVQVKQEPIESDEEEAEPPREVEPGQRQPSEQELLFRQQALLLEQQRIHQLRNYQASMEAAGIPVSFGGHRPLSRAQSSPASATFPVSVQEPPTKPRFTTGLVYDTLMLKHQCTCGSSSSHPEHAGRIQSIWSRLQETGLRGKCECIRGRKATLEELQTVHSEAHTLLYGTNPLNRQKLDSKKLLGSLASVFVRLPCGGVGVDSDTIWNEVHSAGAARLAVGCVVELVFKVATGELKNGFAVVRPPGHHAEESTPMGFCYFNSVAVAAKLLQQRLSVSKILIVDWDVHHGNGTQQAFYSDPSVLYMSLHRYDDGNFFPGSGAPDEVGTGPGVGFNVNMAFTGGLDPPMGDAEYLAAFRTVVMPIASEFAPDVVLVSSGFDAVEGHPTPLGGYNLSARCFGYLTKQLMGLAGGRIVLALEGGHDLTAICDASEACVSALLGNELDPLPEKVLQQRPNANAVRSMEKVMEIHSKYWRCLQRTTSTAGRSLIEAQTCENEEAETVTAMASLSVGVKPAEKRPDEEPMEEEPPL
The test is described as follows: SPR inhibition of HDAC4-NCoR1 interaction. In kind it is binding. As for the experimental part:
as §1
C. Inhibition of HDAC4-NCoR1 interaction by TasQ. The interaction between HDAC4 and NCoR1 was studied either by injecting NCoR over immobilized HDAC4 or with an alternative orientation where HDAC4 was passed over a surface with covalently coupled NCoR1. Whether TasQ can inhibit the formation of the functional HDAC4-NCoR1 complex was tested by pre-incubation with NCoR1 or HDAC4.
To confirm that TasQ inhibits formation of the functional complex between HDAC4 and NCoR1, fl-NCoR1 in solution was injected over immobilized fl-HDAC4 after pre-incubation with TasQ in solution at concentrations ranging from 1 to 100 μM (FIG. 19). […] TasQ in solution inhibits this strong interaction by 50% at 10 μM (FIG. 20). […]

Each structure is given as a SMILES string.

T1 sequence (P56524 whole entry R681A/R798A): as the sequence (P56524 whole entry, one chain of several) above, with R681A, R798A counted along it

On to `COc1cccc2c1c(O)c(C(=O)N(c1ccc(C(F)(F)F)cc1)C1CCCCC1)c(=O)n2C` [ESATA-20], for which, in test [1], the IC90 was determined as 1000 nM.
Take `COc1cccc2c1c(O)c(C(=O)N(C)c1ccc(C(F)(F)F)cc1)c(=O)n2C` [TasQ, Tasquinimod]: in test [1], the IC90 stood at 10000 nM. The “competitive displacement of mutant HDAC4 from immobilized TasQ” value in test [2] is listed as “not competitively displaced”. Further, the inhibition at 10 µM on HDAC4-NCoR1 complex (at 10 μM, read-out: inhibition of fl-NCoR1 binding to immobilized fl-HDAC4) turned out to be 50%. For the same molecule, the IC50 on HDAC4-NCoR1 complex (sigmoidal dose-response fit, read-out: IC50 for competitive inhibition of fl-HDAC4 binding to immobilized NCoR1) came to 1100 nM.

As a reminder, the IC90 is the concentration needed for an effect of 90%. In general, inhibition refers to the change of the read-out against control, counted positive when it falls. What is called IC50 is the midpoint of a concentration-inhibition curve.

The values are drawn from patent US20250059139A1, “COMPOUNDS FOR TREATMENT OF CANCER” (THE JOHNS HOPKINS UNIVERSITY, priority 2021, published 2025).
